Usually inhibition stands for how much of the control response was suppressed.

1 sequence from paper PMC4473678, “Swedish mutant APP-based BACE1 binding site peptide reduces APP β-cleavage and cerebral Aβ levels in Alzheimer’s mice” (Scientific Reports, 2015) can be followed below.

In test [1] the test system is BACE1 in CHO/APPwt cells. Put plainly: IP/WB of BACE1 binding in CHO/APPwt cell lysates. Details: species or system Chinese hamster. The following applies: biotin-labeled peptide 20 μM, 30 min, anti-biotin IP, listed as TAT-APPsweBBP.
Test [2] relates to 5XFAD mice. Put plainly: WB of APP processing products in brain homogenates, 5XFAD mice. Type of test: in vivo, mouse. The following applies: 8 weeks. How it is done: (§1) Transgenic AD mice [5XFAD; B6SJL-Tg(APPSwFlLon,PSEN1*M146L*L286V) 6799Vas/Mmjax] at 2.5 months of age were obtained from the Jackson Laboratory (Bar Harbor, ME) and housed and maintained in the Animal Facility of College of Medicine at University of South Florida (USF). The mice at 3.5 months of age were treated with TAT-APPsweBBP, TAT peptide (100 nmol/kg in 100 μL PBS) or PBS (100 μL) daily by intraperitioneal injection (i.p.) for eight consecutive weeks. The mice were subjected to behavioral testing after 8-week treatment and then euthanized for immunohistochemical, WB and ELISA analyses. Animals were housed and maintained at USF and all experiments were in compliance with protocols approved by USF Institutional Animal Care and Use Committee. All methods were performed in accordance with relevant guidelines and regulations.
(§2) WB analysis was performed as previously described. Briefly, the proteins from the various cell-free suspensions, cell lysates and brain homogenates were electrophoretically separated using 10% bicine/tris gel (8 M urea) for proteins less than 5 kD or 10% tricine/tris gels for larger proteins. Electrophoresed proteins were transferred to polyvinylidene difluoride membranes (Bio-Rad, Richmond, CA), washed and blocked for 2 h at room temperature in Tris-buffered saline containing 5% (w/v) nonfat dry milk (TBS/NFDM). After blocking, membranes were hybridized for 2 h with various primary antibodies, washed and incubated for 1 h with the appropriate HRP-conjugated secondary antibody in TBS/NFDM. Blots were developed using the luminol reagent (Thermo Fisher Scientific, Waltham, MA).

In test [3] the test system is recombinant BACE1 protein. Put plainly: WB of BACE1-mediated cleavage of biotin-labeled peptide, cell-free. It counts as biochemical. The following applies: 10 μg biotin-labeled TAT-APPsweBBP with 10 μL recombinant BACE1 (1.0 U/mL), 4 h, 37 °C. How it is done:
(§3) In order to confirm that APPsweBBP containing the β-cleavage site could bind to and be consequently proteolyzed by BACE1, 10 μg of biotin-labeled TAT-APPsweBBP was incubated with or without 10 μL of recombinant BACE1 protein (1.0 U/mL) in BACE1 reaction buffer for 4 h at 37 °C and then subjected to WB analysis as described previously. In addition, we performed immunoprecipitation (IP) and WB analyses of this mixture with anti-BACE1 and anti-biotin antibodies to confirm that TAT-APPsweBBP, but not TAT, specifically binds to BACE1.

Test [4] concerns WT mice. Put plainly: Rotarod test, WT mice. Type of test: in vivo, mouse. The following applies: 100 nmol/kg i.p. daily, 8 weeks, n = 10 per treatment.
Test [5] deals with recombinant BACE1. Put plainly: BACE1 activity (FRET) assay, cell-free. Type of test: biochemical. How it is done: The BACE1 inhibiting activity of APP-based BACE1 site binding peptides were determined using a fluorescence resonance energy transfer (FRET) assay (Pan Vera Co., Madison, WI), which employs a recombinant baculovirus-expressed BACE1 and a specific substrate (Rh-[…]-quencher) that is based on the APPswe mutation. This specific peptide substrate becomes highly fluorescent upon enzymatic cleavage. […] Then, 10 μL of BACE1 stop buffer (2.5 M sodium acetate) was added to the mixture. Fluorescence was read using a fluorometer, with excitation at 545 nm and emission at 585 nm.

The test system of test [6] is CHO/APPswe cells. Put plainly: APP processing in CHO/APPswe cells (WB, ELISA). Type of test: cell-based, Chinese hamster. The following applies: 0 to 20 μM, 24 h. How it is done: Chinese hamster ovary (CHO) cells engineered to express human APPwt (CHO/APPwt cells) or human APPswe (CHO/APPswe cells) were kindly provided by Dr. Stefanie Hahn and Dr. Sascha Weggen (University of Heinrich Heine, Dusseldorf, Germany). As described in our recent report, these cells were cultured in Dulbecco’s modified Eagle’s medium with 10% fetal bovine serum, 1 mM sodium pyruvate and 100 U/mL of penicillin/streptomycin.
Following application of blocking buffer, these cells were stained with mouse anti-BACE1 and anti-biotin antibodies overnight at 4 °C for immunocytochemical analysis. In order to determine the inhibitory effects of TAT-APPsweBBP on BACE1-mediated APP β-cleavage and subsequent Aβ production, both CHO/APPwt and CHO/APPswe cells were plated in 24 well-plates (3×10^5/well) and treated with TAT-APPsweBBP at 0 to 20 μM for 24 h. The cultured media were collected for Aβ and sAPPα analysis by ELISA and WB. Cell lysates were also prepared for analysis of APP amyloidogenic processing by WB.
as §2
Mouse brains were homogenized in ice-cold lysis buffer for 30 s using a Minilys tissue homogenizer (Bertin Technologies, Montigny-le-Bretonneux, France) set at high speed, allowed to stand for 15 min at 4 °C, and centrifuged at 15000 rpm for 30 min. Soluble Aβ1−40/42 species and sAPPα were directly detected in cultured cell media or brain homogenates using the Aβ1−40/42 (Invitrogen) and sAPPα ELISA kits (IBL-America, Minneapolis, MN). Detergent-insoluble total […] species were detected in brain by extracting pellets in 5 M guanidine HCl buffer, followed by a 1:20 dilution in lysis buffer.
For orientation: ELISA stands for enzyme-linked immunosorbent assay.

Test [7] concerns 5XFAD mice. Put plainly: Rotarod test, 5XFAD mice. It counts as in vivo, mouse. The following applies: 100 nmol/kg i.p. daily, 8 weeks, n = 10 per treatment, listed as TAT-APPsweBBP. How it is done: as §1
The rotarod task was also performed to exclude the possibility that positive effects of any treatment in RAWM test are due to improvements in sensorimotor ability. Mice were positioned on the rod (diameter 3.6 cm) of the equipment (Rotarod 7650 accelerating model; Ugo Basile, Biological Research Apparatus, Varese, Italy), which was initially set at 1.0 rpm. The rod was then allowed to steadily accelerate up to 40.0 rpm over a 3-min session and evaluation was made by monitoring latency to fall.
(In general: In the rotarod test animals must keep their balance on a rotating rod.)

The subject of test [8] is recombinant BACE1 protein. Put plainly: Immunoprecipitation/WB of peptide-BACE1 binding, cell-free. The following applies: 10 μg biotin-labeled peptide with 10 μL recombinant BACE1 (1.0 U/mL), 4 h, 37 °C; anti-BACE1 IP/anti-biotin WB and reverse; listed as TAT-APPsweBBP. How it is done:
as §3

Setting [9] is: WB 6E10, listed as TAT-APPsweBBP.
Where [10] appears, read: *P < 0.05, **P < 0.01, three independent experiments, each triplicated.

Entries after “also recorded” stand apart in the source; their conditions may differ.

In the case of “YGRKKRRQRRREISEVNLDAEFR [APPsweBBP conjugated with the membrane fusion fragment of HIV-1 Tat protein]”, the “binding to BACE1 in cell lysates” value in test [1] is “strongly and specifically binds to BACE1; also recorded: markedly bound to BACE1 compared to APPsweBBP”. In addition, in test [2] (setting [9]), the “total cerebral soluble Aβ (Aβs) by WB” value is “much lower levels; also recorded: reduced total cerebral soluble Aβ” and the “β-CTF by WB” value was “much lower levels; also recorded: reduced”. The “band density ratio of β-CTF to holo-APP” value in test [2] (densitometry, versus TAT and PBS, **P < 0.01) was “significantly reduces the band density ratios of β-CTF to holo-APP, compared to TAT- and PBS-treatments (**P < 0.01)”. In addition, the “total APP expression by WB” value in test [2] (listed as TAT-APPsweBBP) is reported as “without notable alteration on total APP expression; also recorded: without significantly altering total APP expression”. Also, the “cleavage by BACE1” value in test [3] was “is cleaved by BACE1; also recorded: can also be cleaved”. In addition, the “rotarod latency to fall” value in test [4] is reported as “no differences between treatment groups on each day”. Besides, the “BACE1 inhibition (result in words)” value in test [5] (FRET assay, APPsweBBP or TAT-APPsweBBP at 0.05, 0.5, 5 and 20 μM (Fig. 1)) is recorded as “competitively inhibits BACE1 activity; also recorded: much higher inhibiting activity than its prototype peptide”. In test [5] (FRET assay, peptide final concentration 20 μM, 90 min, room temperature, read-out: percentage inhibition of BACE1), the inhibition came out at 93.2 ± 2.73%. Further, the “% of Inhibition of BACE1” value in test [5] (peptide final concentration 20 μM, FRET substrate Rh-EVNLDAEFK-quencher, 90 min, room temperature, dark, ex 545/em 585 nm, mean ± SD) is on record as 93.23 ± 2.73%. In addition, in test [6], the “holo APP expression by WB” value is given as “leaving holo APP expression unaltered”, the “sAPPα by WB” value is listed as “promoting” and the “β-CTF by WB” value is “markedly inhibited”. Moreover, in test [6] (setting [10]), the “Aβ1−40/42 by ELISA” value is “significantly decreased” and the “sAPPα by ELISA” value is on record as “increased sAPPα levels in a dose-dependent manner”. In addition, in test [6] (listed as TAT-APPsweBBP), the “Aβ by WB” value was “markedly decreased Aβs; also recorded: markedly inhibited”. Further, the “rotarod latency to fall / motor performance” value in test [7] is given as “no differences between treatment groups on each day; also recorded: tended to enhance motor activity in 5XFAD mice, as shown by increased latency to fall, but this did not reach a statistical level of significance”. In test [8], the “binding to BACE1 (co-immunoprecipitation)” value is “binds to BACE1 protein; also recorded: strongly binds to”.
